From PMC8623647 (Pharmaceuticals, 2021)
Where “and” joins values, the source holds several entries; their conditions need not be identical. Identical values can stand only once. Entries after “also recorded” stand apart in the source; their conditions may differ. Like-named read-outs stand apart in the source and are kept apart here.

What was measured:
MAO-B [1] = system: MAO-B; design: method as in PMID 30915862; settings: study of Shalaby et al. ref 25; cited from earlier work
[2] = design: method as in PMID 12667689; settings: PAMPA-BBB ref 31; cited from earlier work
[3] = BBB permeation by parallel artificial membrane permeability assay (PAMPA); format: in vitro ADME; settings: for Prediction (BBB permeation): PAMPA-BBB class from Pe
Description: The CNS bioavailability of the lead candidates was further ascertained by PAMPA method [31].

recombinant human MAO-A = target: T1, recombinant human MAO-A (Homo sapiens, UniProt P21397); experiment: MAO-A enzyme inhibition (kynuramine substrate, 316 nm)
T1 sequence (P21397 1-527): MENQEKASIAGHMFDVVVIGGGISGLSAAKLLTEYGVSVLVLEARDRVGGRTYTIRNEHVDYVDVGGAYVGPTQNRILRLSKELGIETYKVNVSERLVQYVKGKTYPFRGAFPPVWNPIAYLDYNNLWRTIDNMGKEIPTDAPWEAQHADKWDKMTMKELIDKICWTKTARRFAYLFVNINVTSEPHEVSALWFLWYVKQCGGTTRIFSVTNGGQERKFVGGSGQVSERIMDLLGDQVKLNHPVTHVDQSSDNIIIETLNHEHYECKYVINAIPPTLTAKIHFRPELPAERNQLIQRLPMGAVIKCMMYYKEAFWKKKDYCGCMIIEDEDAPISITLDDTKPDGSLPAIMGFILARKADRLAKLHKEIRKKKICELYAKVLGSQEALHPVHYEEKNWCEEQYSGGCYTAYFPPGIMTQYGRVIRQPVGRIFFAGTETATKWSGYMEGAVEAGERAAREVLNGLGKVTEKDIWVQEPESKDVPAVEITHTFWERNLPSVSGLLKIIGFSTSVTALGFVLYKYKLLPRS
Description: (§5) MAO activity assays were performed using recombinant human MAO-A or MAO-B.
(§6) IC50 values were determined by measuring residual enzyme activities.

MAO-B [4] = target: T2, MAO-B (Homo sapiens, UniProt P27338); experiment: MAO-B enzyme inhibition (benzylamine substrate, 250 nm)
T2 sequence (P27338 1-520): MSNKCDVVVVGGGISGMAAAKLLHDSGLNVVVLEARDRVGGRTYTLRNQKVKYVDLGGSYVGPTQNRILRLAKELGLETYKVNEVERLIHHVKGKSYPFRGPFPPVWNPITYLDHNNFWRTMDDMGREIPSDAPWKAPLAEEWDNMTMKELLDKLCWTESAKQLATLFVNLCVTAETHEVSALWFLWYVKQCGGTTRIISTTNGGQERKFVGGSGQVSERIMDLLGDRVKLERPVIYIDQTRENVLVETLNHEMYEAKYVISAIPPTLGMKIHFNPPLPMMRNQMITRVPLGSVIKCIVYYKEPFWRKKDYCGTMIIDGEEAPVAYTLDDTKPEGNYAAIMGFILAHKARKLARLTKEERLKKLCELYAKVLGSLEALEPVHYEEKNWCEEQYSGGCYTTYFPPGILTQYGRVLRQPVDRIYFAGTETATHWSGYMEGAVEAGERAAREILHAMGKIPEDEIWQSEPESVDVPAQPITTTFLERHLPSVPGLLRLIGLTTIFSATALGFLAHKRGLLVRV
Description: as §5, §6

MAO-B [5] = target: T2, MAO-B; experiment: Kinetics study of MAO-B inhibition (Lineweaver-Burk and secondary plots); format: biochemical
Description: Kinetic studies on MAO-B inhibitions were performed on TM1 and TM8.

MAO-B [6] = target: T2, MAO-B; experiment: Reversibility of MAO-B inhibition by dialysis; format: biochemical
Description: The reversibilities of MAO-B inhibitions by TM1 and TM8 were assessed by dialysis. […] Reversibility patterns were determined by comparing the activities of dialyzed (AD) and undialyzed (AU) samples.

Vero cells [7] = experiment: ROS assay (H2O2-induced ROS levels); format: cell-based, African Green Monkey; settings: compound at its IC50 value, exogenous H2O2
Description: ROS increase vulnerability to neuronal damage by causing oxidative damage in the brain during neurodegenerative diseases.
(§1) The cytotoxicities and ROS quenching abilities of the two lead compounds (TM1 and TM8) were evaluated as previously described.
Figure 6 Effects of TM1 (a) and TM8 (b) on H2O2-induced ROS levels. Vero cells (1 × 10^6 cells/mL) were pre-incubated with 100 μg/mL of 30% H2O2 and ROS production was evaluated immediately as described in Section 4.

[8] = Cytotoxicity by MTT assay; format: cell-based, African Green Monkey; settings: African green monkey, Vero cells (kidney); Vero cells treated at effective concentrations; read-out: Cells remaining viable
Description: (§2) African Green Monkey kidney cells (VERO cells) were used to evaluate the cytotoxic effects of TM1 and TM8. Cells were incubated with different doses (1 µg/mL to 500 µg/mL) of the two compounds for 48 h, and relative cell viabilities were determined by MTT assay.
as §1
(§3) Figure 4 Effect of TM1 on Vero cell viability. (a) cell viability treated with TM1; (b) dose-response curve; (c) phase contrast microscope images of Vero cells treated with different concentrations of TM1. Cells were treated with TM1 for 48 h and cell viabilities were assessed by MTT assay as described in Section 4.
(§4) Figure 5 Effect of TM8 on Vero cell viability. (a) cell viability treated with TM8; (b) dose-response curve; (c) phase contrast microscope images of Vero cells treated with different concentrations of TM8. Cells were treated with TM8 for 48 h and cell viabilities were assessed by MTT assay as described in Section 4.

Vero cells [9] = experiment: Cytotoxicity by MTT assay; format: cell-based, African Green Monkey; settings: 48 h, MTT assay; for IC50: Chlorocebus sabaeus, Vero, read-out: IC50 for Vero cell viability; for Concentrations resulting in high viability (>90%): Vero cells
Description: as §2, §1, §3, §4

CSc1ccc(C(=O)/C=C/c2cccc(Br)c2)cc1 [(E)-3-(3-bromophenyl)-1-(4-(methylthio)phenyl)prop-2-en-1-one]
IC50 (MAO-B [1]): 190 ± 10 nM

NCCc1ccc(O)c(O)c1 [Dopamine, reference compound]
Bibliography Pe [2]: 0.2 ×10⁻⁶ cm/s | Prediction (BBB permeation) [3]: CNS− (CNS− (low BBB permeation predicted): Pe (10^−6 cm·s^−1) < 2.00)

CN1C(C(=O)Nc2ccccn2)=C(O)c2ccccc2S1(=O)=O [Piroxicam, reference compound]
Bibliography Pe [2]: 2.5 ×10⁻⁶ cm/s | Experimental Pe ([3]; PAMPA-BBB): 2.44 ± 0.26 ×10^−6 cm·s^−1 | Prediction (BBB permeation) [3]: CNS± (CNS± (BBB permeation uncertain): Pe (10^−6 cm·s^−1) from 2.00 to 4.00)

CSc1ccc(C(=O)/C=C/c2ccccc2)cc1 [TM1]
IC50 (recombinant human MAO-A): 13800 ± 50 nM | remaining activity at 10 µM (recombinant human MAO-A; read-out: Residual Activity at 10 µM (%) MAO-A): 62.6 ± 9.7% | IC50 (MAO-B [4]): 17 ± 3 nM | SI (hMAO-B selectivity index) (MAO-B [4]; IC50(hMAO-A) divided by IC50(hMAO-B)): 812 and 811.8 | Times more potent than pargyline (MAO-B) (MAO-B [4]; ratio of MAO-B IC50 values): 1.6 times | Times more potent than the reference drug lazabemide (MAO-B) (MAO-B [4]; ratio of MAO-B IC50 values): 3.7 times | remaining activity at 10 µM (MAO-B [4]; read-out: Residual Activity at 10 µM (%) MAO-B): 13.2 ± 0.7% | Blood-brain barrier permeability in words ([3]; PAMPA): high blood-brain barrier permeabilities | Prediction (BBB permeation) [3]: CNS+ (CNS+ (high BBB permeation predicted): Pe (10^−6 cm·s^−1) > 4.00) | Papp ([3]; PAMPA-BBB, read-out: Experimental Pe): 15.5 ± 0.33 ×10⁻⁶ cm/s | Inhibitor type for MAO-B (MAO-B [5]; Lineweaver-Burk plots): competitively inhibited MAO-B; also recorded: competitive | Ki (MAO-B [5]; from secondary plots of slopes vs. inhibitor concentrations): 11 ± 1 nM | MAO-B activity of dialyzed sample (AD) (MAO-B [6]; after dialysis, test compounds […], lazabemide 0.20 µM, pargyline 0.30 µM): 68.1% | Reversibility of MAO-B inhibition (MAO-B [6]; dialysis-based method): reversible MAO-B inhibitors | MAO-B activity of undialyzed sample (AU) (MAO-B [6]; preincubated 30 min, test compounds […], lazabemide 0.20 µM, pargyline 0.30 µM): 24.9% | Effect on H2O2-induced intracellular ROS levels (Vero cells [7]): significantly reduced reactive oxygen species (ROS) levels; also recorded: appreciably lower ROS levels; also recorded: mitigated H2O2-induced increases in ROS levels | viability at 48 h [8]: > 90% | IC50 (Vero cells [9]; converted from µg/mL): 948000 nM | IC50 (Vero cells [9]): 242 µg/mL | Concentrations resulting in high viability (>90%) (Vero cells [9]): < 250 µg/mL | Concentrations resulting in high viability (>90%) (Vero cells [9]; converted from µg/mL): < 983.1 µM
